Ends that are not written are not given here.

We go through six substances from patent US5310729A, “Interferon-related polypeptides as CR2 ligands and their use for modulating immune cell functions” (California Institute of Biological Research, priority 1990, dated 1994).

For one assay, the target named is T1, CR2 (Homo sapiens, UniProt P20023).
T1 construct: CR2 is isolated from Raji cells (ATTC CCL 86); endogenous in cells; host or cells: Raji cells (ATCC CCL 86)
T1 sequence (P20023 21-1033): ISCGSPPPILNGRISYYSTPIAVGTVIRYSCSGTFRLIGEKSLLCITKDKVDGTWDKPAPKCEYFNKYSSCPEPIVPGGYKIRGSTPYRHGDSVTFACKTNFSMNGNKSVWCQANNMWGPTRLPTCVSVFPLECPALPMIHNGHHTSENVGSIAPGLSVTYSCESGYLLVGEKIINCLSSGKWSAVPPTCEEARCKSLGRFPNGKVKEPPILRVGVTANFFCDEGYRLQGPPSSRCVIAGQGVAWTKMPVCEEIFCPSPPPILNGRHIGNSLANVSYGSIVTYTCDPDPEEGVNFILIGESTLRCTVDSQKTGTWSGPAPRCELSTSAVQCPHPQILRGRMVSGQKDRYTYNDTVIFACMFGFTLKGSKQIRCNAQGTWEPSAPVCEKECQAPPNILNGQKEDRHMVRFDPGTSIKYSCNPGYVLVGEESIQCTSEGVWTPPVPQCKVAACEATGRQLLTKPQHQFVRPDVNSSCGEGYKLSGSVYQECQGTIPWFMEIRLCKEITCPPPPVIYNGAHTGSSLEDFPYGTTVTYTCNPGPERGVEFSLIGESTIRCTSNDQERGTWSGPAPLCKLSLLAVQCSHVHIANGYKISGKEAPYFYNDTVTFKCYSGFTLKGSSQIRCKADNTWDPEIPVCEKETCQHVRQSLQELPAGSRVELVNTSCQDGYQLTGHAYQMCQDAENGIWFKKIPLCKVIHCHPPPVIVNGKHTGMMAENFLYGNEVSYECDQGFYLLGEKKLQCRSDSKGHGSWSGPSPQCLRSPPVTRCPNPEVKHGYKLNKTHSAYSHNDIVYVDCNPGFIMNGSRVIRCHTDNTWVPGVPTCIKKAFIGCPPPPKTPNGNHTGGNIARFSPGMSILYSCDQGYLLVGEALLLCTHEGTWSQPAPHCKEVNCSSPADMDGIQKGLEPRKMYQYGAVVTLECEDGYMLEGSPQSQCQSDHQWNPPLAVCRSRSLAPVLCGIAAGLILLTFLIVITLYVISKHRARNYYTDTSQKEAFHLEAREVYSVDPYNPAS
Description: Inhibition of CR2 binding to rIFNα by competing polypeptides. Particulars: competing polypeptide at 100ug/ml; rIFNα solid phase, CR2 liquid phase. As for the experimental part:
A binding reaction admixture containing rIFNα in the solid phase and CR2 in the liquid phase was prepared as described in Example 3c except that a competing CR2 ligand shown in Table 6 was also included in the admixture at a concentration of 100ug/ml. Thereafter, the binding assay was conducted as described in Example 3c to measure the amount of CR2 specifically bound to rIFNα.

In the next assay the test system is rIFNα. To be noted: BSA added to the binding reaction admixture in place of CR2.
In assay [1] the target is T2, native CR2 present on Raji cells (Homo sapiens, UniProt P20023).
T2 construct: native CR2 present on Raji cells; endogenous in cells; host or cells: Raji cells
T2 sequence (P20023 21-1033): T1 sequence (P20023 21-1033)
Description: Inhibition of Zymosan-C3 rosette formation in Raji cells. To be noted: 10^5 Raji cells; zero to 200 μg tested, amount for the value not stated. The class given is cell-based. On the procedure:
Fresh blood was collected from a healthy donor, maintained at room temperature for 2 hours, centrifuged at 2000×g for about 10 min and the resulting supernatant collected. Five mg of Zymosan A particles (Sigma Chemical Co., St. Louis, Mo.) were boiled for 30 min in 20 ml of 150 mM NaCl and washed three times in phosphate-buffered saline (PBS) to form activated particles. One mg of activated particles was admixed with 0.5 ml of the collected blood supernatant, the admixture was maintained at 37° C. for 30 minutes, and then the particles were washed 3 times in PBS. The washed particles were re-suspended in PBS at a concentration of 0.5 mg/ml to form a C3-coated Zymosan composition.
Cultures containing 10^5 Raji cells were admixed with 100 microliters (μl ) of culture medium containing varying amounts (zero to 200 μg) of C3 or IFNαA derived polypeptides (p7 and p2 prepared in Example 1) or rIFNα prepared in Example 3b and the admixture maintained at 37° C. for 30 minutes to allow the CR2 ligand polypeptides to bind any CR2 receptor present on the Raji cells. Thereafter, 50 μl of the C3-coated Zymosan composition were added to each cell culture. […] More than 3 rosettes per cell were counted as C3 specific binding. Inhibition is expressed as the percent decrease in bound rosettes when comparing binding in the presence or absence of admixed polypeptide.

Regarding QLNNLEACV [p4, QLNNLEACV], the inhibition (usually the percentage by which the read-out fell short of the control) at 100 µg/mL on CR2 turned out to be 45%. On to bovine serum albumin [BSA], for which, in the assay with rIFNα, the “Binding to solid-phase rIFNα (in words)” value was “no dose dependent binding”. In turn, SPGRGD [p10, SPGRGD] showed an inhibition at 100 µg/mL on CR2 of 0%. For the substance QLNDMEACV [p6, QLNDMEACV], the inhibition at 100 µg/mL on CR2 amounted to 0%.

Regarding QLNDLEACV [p2, QLNDLEACV], the “Percent Inhibition of Zymosan-C3 Rosette Formation in Raji Cells” value in assay [1] is 55%. Further, the inhibition at 100 µg/mL on CR2 worked out at 48%. QLYNVEATS [p7, QLYNVEATS]: the “Percent Inhibition of Zymosan-C3 Rosette Formation in Raji Cells” value in assay [1] is recorded as 77%. This substance gave an inhibition at 100 µg/mL at CR2 of 50%.
